Entries after “also recorded” stand apart in the source; their conditions may differ.
Tests used:
[1] = tested on: TNFR-Fc producing cells (CHO cell lines); experiment: Betaine in 1 L bioreactor cultures of TNFR-Fc producing CHO cells at production osmolality; format: cell-based, Chinese hamster
Method: TNFR-Fc production in some CHO cell lines results in greater quantities of recombinant protein product but with lower viability than other cell lines during the final days of the run. The decreased viability correlates with increased protease activity in the culture supernatant, a result of dying cells releasing proteases into the media, which decreases stability of the final purified product. The current study was performed to determine if betaine could prolong viability at production osmolality (250-280 mOsm initial value).
The bioreactors used for this study were stirred vessels with a 1 liter working volume, with temperature, pH and dO2 control. The medium was serum-free with bicarbonate, IGF-1 (LongR3; GroPep, Australia), intralipids and peptones added. Betaine was added to 1 L bioreactor cultures of TNFR-Fc producing cells at 0, 10, 20, 30, and 40 mM with the osmolality of each culture adjusted to 270 to 280 mOsm with an appropriate amount of NaCl. The reactors were induced to express recombinant protein on day 2 by reducing the temperature and adding butyrate to 0.5 mM. Daily samples were taken for analysis of metabolic and productivity parameters.
The ability of induced cells to produce TNFR:Fc was not decreased in the presence of betaine.

[2] = tested on: cell cultures; conditions: physiological osmolality, 292 mOsm/kg; cited from earlier work

C[N+](C)(C)CC(=O)O [betaine]
cell viability (viable cells as percentage of living cells over total cells, trypan blue exclusion; VCD profiles) ([1]; betaine 0, 10, 20, 30, 40 mM, serum-free medium, osmolality 270 to 280 mOsm, most noticeable after day 5 (FIG. 1)): increases cell viability; also recorded: positive effect on cell viability | concentration dependence of the viability effect ([1]; betaine 10-40 mM, higher concentrations than 30 mM did not increase viability as much): titration effect up to 30 mM | ability of induced cells to produce TNFR:Fc ([1]; in the presence of betaine, induced on day 2 by reduced temperature and 0.5 mM butyrate): not decreased | increase in percentage of secreted recombinant polypeptide having the desired conformation (native conformation and dimerized) ([1]; in the presence of betaine, measured by hydrophobic interaction chromatography (HIC) against known controls): 17.7% | effect on cell culture growth or maximum viable cell concentration [2]: no effect

— patent US7829309B1, “Cell culture performance with betaine” (Immunex Corporation, priority 2002, dated 2010)
